# In patent US8959984B2, “Proteome-wide quantification of small molecule binding to cellular target proteins” (priority 2007, dated 2015):
# Tests used:
# Assay in all cases: binding to VI16742 beads (HeLa lysate, SILAC MS)
# PIK3C2A (IPI00002580) = biological target: T1, PIK3C2A (IPI00002580) (Homo sapiens, UniProt O00443)
# T1 construct: endogenous in cells; host or cells: HeLa S3
# How it was run: (§1)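 First, lysate proteins are exposed to beads bearing the pyrido[2,3-d]pyrimidine-based inhibitor. Next, specifically retained proteins are identified.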
# CSK (IPI00013212) = biological target: T2, CSK (IPI00013212) (Homo sapiens, UniProt P41240)
# T2 construct: endogenous in cells; host or cells: HeLa S3 cell lysate
# How it was run: as §1
# MAP2K3 (IPI00218858) = biological target: T3, MAP2K3 (IPI00218858) (Homo sapiens, UniProt P46734)
# T3 construct: endogenous in cells; host or cells: HeLa S3
# T3 sequence (P46734 1-347): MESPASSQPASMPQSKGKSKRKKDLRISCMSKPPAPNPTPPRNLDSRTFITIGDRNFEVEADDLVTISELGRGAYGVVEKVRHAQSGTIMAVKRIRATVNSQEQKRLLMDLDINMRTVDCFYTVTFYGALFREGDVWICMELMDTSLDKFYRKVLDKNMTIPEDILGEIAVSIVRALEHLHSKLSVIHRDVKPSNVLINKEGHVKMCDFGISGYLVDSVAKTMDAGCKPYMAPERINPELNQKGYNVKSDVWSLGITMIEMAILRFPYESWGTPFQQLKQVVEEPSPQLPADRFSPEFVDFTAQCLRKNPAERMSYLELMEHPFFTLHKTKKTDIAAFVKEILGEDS
# How it was run: as §1
# BUB1 (IPI00783305) = biological target: T4, BUB1 (IPI00783305) (Homo sapiens, UniProt O43683)
# T4 construct: endogenous in cells; host or cells: HeLa S3
# How it was run: as §1
# [1] = biological target: T5, OSR1 (OXSR1, IPI00010080) (Homo sapiens, UniProt O95747)
# T5 construct: endogenous in cells; host or cells: HeLa S3
# How it was run: as §1
# MAP2K1 (IPI00219604) = biological target: T6, MAP2K1 (IPI00219604) (Homo sapiens, UniProt Q02750)
# T6 construct: endogenous in cells; host or cells: HeLa S3
# How it was run: as §1
# [2] = biological target: T7, CRK7 (CRKRS, IPI00868781) (Homo sapiens, UniProt Q9NYV4)
# T7 construct: endogenous in cells; host or cells: HeLa S3 cell lysate
# How it was run: as §1
# [3] = biological target: T8, MSK1 (RPS6KA5, IPI00335101) (Homo sapiens, UniProt O75582)
# T8 construct: endogenous in cells; host or cells: HeLa S3
# How it was run: as §1
# MAP2K6 (IPI00003814) = biological target: T9, MAP2K6 (IPI00003814) (Homo sapiens, UniProt P52564)
# T9 construct: endogenous in cells; host or cells: HeLa S3
# T9 sequence (P52564 1-334): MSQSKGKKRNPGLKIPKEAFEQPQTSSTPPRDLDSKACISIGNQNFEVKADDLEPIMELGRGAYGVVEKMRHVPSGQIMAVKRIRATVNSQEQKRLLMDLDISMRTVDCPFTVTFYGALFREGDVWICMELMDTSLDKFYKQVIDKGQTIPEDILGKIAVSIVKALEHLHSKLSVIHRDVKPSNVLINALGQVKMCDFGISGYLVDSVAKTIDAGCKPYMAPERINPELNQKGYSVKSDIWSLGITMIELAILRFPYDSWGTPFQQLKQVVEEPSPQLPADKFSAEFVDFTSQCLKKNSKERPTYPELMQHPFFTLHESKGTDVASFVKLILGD
# How it was run: as §1
# MASTL (IPI00074258) = biological target: T10, MASTL (IPI00074258) (Homo sapiens, UniProt Q96GX5)
# T10 construct: endogenous in cells; host or cells: HeLa S3
# T10 sequence (Q96GX5 1-879): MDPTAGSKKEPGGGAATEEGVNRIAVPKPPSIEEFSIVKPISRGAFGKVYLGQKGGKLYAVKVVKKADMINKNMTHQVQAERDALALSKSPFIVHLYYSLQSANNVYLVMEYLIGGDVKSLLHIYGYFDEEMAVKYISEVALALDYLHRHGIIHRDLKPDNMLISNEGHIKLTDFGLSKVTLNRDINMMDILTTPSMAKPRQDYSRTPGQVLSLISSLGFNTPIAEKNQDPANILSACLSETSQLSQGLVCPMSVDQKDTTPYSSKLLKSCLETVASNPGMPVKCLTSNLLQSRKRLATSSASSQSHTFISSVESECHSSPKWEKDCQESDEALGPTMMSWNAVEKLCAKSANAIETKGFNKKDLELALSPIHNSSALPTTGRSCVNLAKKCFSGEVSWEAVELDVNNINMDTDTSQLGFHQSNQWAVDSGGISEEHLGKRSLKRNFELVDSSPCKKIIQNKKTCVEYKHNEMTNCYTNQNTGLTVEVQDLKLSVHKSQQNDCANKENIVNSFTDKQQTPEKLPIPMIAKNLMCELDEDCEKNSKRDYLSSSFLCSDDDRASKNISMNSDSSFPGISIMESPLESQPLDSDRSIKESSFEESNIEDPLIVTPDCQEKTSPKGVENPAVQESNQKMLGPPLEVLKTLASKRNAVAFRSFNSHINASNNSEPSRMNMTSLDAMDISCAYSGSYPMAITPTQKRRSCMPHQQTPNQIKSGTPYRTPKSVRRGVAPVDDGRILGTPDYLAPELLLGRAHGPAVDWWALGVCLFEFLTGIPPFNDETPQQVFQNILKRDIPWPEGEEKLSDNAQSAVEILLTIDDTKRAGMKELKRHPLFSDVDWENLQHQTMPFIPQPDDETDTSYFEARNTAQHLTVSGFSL
# How it was run: as §1
# [4] = control beads vs first incubation
# T6 sequence (Q02750 whole entry): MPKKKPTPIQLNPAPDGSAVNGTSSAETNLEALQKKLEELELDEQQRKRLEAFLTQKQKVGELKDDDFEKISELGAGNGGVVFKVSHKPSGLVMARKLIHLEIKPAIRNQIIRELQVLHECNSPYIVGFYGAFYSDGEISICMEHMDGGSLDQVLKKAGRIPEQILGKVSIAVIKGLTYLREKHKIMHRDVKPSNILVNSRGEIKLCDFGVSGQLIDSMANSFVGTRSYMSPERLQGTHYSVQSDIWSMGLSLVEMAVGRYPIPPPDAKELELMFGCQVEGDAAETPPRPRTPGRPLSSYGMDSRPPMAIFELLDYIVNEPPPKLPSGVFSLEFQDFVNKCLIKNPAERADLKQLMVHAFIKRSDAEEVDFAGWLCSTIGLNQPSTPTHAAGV
# T1 sequence (O00443 whole entry): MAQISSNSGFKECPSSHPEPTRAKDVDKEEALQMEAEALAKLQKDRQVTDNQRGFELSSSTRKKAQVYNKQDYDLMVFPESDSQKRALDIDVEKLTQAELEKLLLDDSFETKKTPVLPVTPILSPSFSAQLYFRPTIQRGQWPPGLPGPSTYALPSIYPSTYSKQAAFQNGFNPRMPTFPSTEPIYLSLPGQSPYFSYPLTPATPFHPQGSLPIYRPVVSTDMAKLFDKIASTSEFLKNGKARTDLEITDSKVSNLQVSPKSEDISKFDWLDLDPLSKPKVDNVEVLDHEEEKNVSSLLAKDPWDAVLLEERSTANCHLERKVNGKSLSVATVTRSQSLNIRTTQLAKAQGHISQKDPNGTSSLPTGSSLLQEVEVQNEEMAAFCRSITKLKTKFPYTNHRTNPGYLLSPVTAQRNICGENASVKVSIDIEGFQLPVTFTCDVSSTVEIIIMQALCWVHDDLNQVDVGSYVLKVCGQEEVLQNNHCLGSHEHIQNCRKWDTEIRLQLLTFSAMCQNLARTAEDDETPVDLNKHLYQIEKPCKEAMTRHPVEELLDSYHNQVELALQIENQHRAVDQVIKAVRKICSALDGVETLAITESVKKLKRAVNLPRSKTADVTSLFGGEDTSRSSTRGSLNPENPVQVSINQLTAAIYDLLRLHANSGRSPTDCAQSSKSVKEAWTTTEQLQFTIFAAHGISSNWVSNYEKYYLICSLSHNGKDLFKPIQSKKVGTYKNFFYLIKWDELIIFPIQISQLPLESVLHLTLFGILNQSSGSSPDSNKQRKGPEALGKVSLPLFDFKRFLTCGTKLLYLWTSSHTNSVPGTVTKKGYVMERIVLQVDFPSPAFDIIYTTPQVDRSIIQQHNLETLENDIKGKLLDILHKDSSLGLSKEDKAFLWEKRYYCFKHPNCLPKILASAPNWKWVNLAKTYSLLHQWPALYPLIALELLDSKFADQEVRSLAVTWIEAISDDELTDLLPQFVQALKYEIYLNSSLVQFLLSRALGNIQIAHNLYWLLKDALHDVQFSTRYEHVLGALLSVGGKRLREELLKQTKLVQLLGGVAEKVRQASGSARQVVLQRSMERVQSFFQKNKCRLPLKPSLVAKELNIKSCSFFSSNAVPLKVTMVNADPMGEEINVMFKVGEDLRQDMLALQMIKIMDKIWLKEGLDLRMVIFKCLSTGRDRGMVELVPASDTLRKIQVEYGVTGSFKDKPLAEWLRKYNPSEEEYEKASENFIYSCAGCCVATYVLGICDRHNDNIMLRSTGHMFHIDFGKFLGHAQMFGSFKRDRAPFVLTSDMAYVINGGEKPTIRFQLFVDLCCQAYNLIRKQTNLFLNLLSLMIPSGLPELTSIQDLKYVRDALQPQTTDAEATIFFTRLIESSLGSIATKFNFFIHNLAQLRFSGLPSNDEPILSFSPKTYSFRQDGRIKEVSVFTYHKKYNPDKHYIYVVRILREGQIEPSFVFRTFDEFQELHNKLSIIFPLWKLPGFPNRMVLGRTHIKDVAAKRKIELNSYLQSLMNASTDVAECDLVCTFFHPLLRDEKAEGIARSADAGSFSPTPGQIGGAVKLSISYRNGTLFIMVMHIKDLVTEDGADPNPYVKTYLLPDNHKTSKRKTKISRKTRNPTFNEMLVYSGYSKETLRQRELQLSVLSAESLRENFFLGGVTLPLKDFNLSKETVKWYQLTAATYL
# T5 sequence (O95747 whole entry): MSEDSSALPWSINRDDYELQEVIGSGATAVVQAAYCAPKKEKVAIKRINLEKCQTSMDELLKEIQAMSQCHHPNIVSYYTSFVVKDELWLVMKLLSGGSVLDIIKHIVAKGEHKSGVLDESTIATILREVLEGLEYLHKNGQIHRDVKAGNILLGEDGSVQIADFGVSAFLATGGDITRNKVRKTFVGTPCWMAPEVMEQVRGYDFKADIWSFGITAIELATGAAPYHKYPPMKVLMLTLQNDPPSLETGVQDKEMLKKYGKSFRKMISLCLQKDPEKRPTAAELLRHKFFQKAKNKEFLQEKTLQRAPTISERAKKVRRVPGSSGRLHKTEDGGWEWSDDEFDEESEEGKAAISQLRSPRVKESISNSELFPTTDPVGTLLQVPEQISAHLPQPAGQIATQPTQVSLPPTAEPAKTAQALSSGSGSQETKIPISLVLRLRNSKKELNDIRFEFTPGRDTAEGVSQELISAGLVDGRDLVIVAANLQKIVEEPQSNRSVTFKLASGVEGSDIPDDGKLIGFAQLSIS
# T7 sequence (Q9NYV4 whole entry): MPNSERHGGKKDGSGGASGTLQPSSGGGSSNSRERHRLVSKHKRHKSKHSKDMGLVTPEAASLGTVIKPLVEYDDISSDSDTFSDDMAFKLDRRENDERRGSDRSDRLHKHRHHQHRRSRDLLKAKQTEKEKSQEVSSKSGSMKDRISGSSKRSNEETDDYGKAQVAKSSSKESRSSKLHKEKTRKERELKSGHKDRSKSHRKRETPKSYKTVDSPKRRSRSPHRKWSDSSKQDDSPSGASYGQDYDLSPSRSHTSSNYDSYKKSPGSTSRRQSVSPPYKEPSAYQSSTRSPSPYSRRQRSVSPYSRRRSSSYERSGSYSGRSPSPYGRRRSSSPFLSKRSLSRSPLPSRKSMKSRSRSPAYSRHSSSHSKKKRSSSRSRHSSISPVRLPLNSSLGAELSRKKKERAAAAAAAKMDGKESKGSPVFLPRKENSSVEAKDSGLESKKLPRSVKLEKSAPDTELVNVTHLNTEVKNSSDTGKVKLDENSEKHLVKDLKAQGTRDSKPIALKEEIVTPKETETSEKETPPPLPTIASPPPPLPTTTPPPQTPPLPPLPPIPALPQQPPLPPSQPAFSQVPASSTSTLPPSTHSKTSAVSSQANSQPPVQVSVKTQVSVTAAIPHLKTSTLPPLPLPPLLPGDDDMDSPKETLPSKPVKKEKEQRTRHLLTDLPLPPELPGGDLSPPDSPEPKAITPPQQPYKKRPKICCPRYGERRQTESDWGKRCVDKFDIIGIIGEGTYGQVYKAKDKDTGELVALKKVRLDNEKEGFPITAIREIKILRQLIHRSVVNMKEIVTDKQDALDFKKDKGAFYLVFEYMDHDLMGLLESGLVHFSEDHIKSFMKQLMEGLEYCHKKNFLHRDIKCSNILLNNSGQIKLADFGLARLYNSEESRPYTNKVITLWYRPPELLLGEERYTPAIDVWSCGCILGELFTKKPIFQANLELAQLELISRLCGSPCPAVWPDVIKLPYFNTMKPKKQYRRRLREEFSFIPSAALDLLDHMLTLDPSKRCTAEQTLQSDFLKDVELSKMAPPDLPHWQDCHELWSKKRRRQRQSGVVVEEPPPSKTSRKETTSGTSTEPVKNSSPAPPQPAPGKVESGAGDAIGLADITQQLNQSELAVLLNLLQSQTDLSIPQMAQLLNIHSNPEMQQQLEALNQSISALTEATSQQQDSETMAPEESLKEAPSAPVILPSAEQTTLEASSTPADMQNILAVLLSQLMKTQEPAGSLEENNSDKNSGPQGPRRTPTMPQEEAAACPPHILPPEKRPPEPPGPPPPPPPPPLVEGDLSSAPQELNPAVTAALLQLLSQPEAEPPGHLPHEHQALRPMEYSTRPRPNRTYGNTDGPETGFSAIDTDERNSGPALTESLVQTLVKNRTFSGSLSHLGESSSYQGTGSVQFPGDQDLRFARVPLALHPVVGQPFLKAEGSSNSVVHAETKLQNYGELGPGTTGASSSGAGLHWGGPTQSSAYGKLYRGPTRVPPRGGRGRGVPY
# T2 sequence (P41240 whole entry): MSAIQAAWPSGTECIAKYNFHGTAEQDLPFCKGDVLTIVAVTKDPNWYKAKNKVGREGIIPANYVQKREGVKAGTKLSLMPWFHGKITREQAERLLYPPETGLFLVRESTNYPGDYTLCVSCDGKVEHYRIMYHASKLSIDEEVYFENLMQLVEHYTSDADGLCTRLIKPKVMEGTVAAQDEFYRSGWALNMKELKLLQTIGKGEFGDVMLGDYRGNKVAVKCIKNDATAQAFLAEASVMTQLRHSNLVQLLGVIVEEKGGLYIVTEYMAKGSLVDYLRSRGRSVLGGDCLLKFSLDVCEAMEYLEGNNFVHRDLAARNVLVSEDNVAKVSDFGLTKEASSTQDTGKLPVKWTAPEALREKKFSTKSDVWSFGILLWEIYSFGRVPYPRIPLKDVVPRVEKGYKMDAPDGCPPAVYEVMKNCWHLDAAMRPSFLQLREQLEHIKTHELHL
smiles,measurement,setting,value
CC(C)n1c(=O)ccc2cnc(Nc3ccc(OCCN)cc3)nc21 [V16742],rAVERAGE (CTRL/1 INC),PIK3C2A (IPI00002580); [4],0.18
same,Ki,PIK3C2A (IPI00002580); immobilized VI16742,104 µM
same,rAVERAGE (2 INC/1 INC),PIK3C2A (IPI00002580); second vs first incubation,0.67
same,r (5 h/2.5 h INC. TIME),CSK (IPI00013212); 5 h vs 2.5 h incubation time,1.51
same,rAVERAGE (CTRL/1 INC),CSK (IPI00013212); [4],0.02
same,Ki,CSK (IPI00013212); immobilized VI16742,79.5 µM
same,rAVERAGE (2 INC/1 INC),CSK (IPI00013212); second vs first incubation,0.60
same,r (5 h/2.5 h INC. TIME),MAP2K3 (IPI00218858); 5 h vs 2.5 h incubation time,1.60
same,rAVERAGE (CTRL/1 INC),MAP2K3 (IPI00218858); [4],0.05
same,Ki,MAP2K3 (IPI00218858); immobilized VI16742,150 µM
same,rAVERAGE (2 INC/1 INC),MAP2K3 (IPI00218858); second vs first incubation,0.74
same,rAVERAGE (CTRL/1 INC),BUB1 (IPI00783305); [4],0.05
same,Ki,BUB1 (IPI00783305); immobilized VI16742,161 µM
same,rAVERAGE (2 INC/1 INC),BUB1 (IPI00783305); second vs first incubation,0.76
same,rAVERAGE (CTRL/1 INC),[1]; [4],0.05
same,Ki,[1]; immobilized VI16742,207 µM
same,rAVERAGE (2 INC/1 INC),[1]; second vs first incubation,0.80
same,r (5 h/2.5 h INC. TIME),MAP2K1 (IPI00219604); 5 h vs 2.5 h incubation time,1.68
same,rAVERAGE (CTRL/1 INC),MAP2K1 (IPI00219604); [4],0.07
same,Ki,MAP2K1 (IPI00219604); immobilized VI16742,180 µM
same,rAVERAGE (2 INC/1 INC),MAP2K1 (IPI00219604); second vs first incubation,0.78
same,r (3 MG/1 MG LYSATE),[2]; 3 mg vs 1 mg lysate,3.21
same,r (5 h/2.5 h INC. TIME),[2]; 5 h vs 2.5 h incubation time,1.04
same,rAVERAGE (CTRL/1 INC),[2]; [4],0.07
same,Ki,[2]; immobilized VI16742,90.7 µM
same,rAVERAGE (2 INC/1 INC),[2]; second vs first incubation,0.64
same,rAVERAGE (CTRL/1 INC),[3]; [4],0.03
same,Ki,[3]; immobilized VI16742,217 µM
same,rAVERAGE (2 INC/1 INC),[3]; second vs first incubation,0.81
same,r (3 MG/1 MG LYSATE),MAP2K6 (IPI00003814); 3 mg vs 1 mg lysate,2.41
same,r (5 h/2.5 h INC. TIME),MAP2K6 (IPI00003814); 5 h vs 2.5 h incubation time,1.36
same,rAVERAGE (CTRL/1 INC),MAP2K6 (IPI00003814); [4],0.05
same,Ki,MAP2K6 (IPI00003814); immobilized VI16742,178 µM
same,rAVERAGE (2 INC/1 INC),MAP2K6 (IPI00003814); second vs first incubation,0.77
same,rAVERAGE (CTRL/1 INC),MASTL (IPI00074258); [4],0.09
same,Ki,MASTL (IPI00074258); immobilized VI16742,109 µM
same,rAVERAGE (2 INC/1 INC),MASTL (IPI00074258); second vs first incubation,0.68
